pIC50, pKi: −log10 of the molar value. Like-named read-outs stand apart in the source and are kept apart here.
Assays:
A1 adenosine receptor = biological target: T1, A1 adenosine receptor (Homo sapiens, UniProt P30542); settings: reported value; cited from earlier work
T1 sequence (P30542 1-326): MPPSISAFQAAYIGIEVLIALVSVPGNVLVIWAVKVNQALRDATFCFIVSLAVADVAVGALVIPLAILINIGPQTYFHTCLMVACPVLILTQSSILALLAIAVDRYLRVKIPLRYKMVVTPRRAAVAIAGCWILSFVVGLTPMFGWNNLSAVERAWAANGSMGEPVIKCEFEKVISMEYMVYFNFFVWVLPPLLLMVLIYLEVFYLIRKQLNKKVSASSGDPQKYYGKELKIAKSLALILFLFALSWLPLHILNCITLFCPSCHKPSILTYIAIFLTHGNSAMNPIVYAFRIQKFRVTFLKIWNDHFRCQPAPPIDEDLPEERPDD

[1] = biological target: T2, human adenosine A1 receptor (Homo sapiens, UniProt P30542); assay: Yeast β-Galactosidase reporter gene assay, inhibition of NECA-induced activity (strain CY12660)
T2 sequence (P30542 1-326): T1 sequence (P30542 1-326)

[2] = biological target: T3, human A1 receptor subtype (Homo sapiens, UniProt P30542); assay: biochemical
T3 sequence (P30542 1-326): T1 sequence (P30542 1-326)

[3] = biological target: T4, human A2a receptor subtype (Homo sapiens, UniProt P29274); assay: Adenosine 2a receptor subtype competition radioligand binding ([3H]CGS-21680, HEK293 membranes); settings: Table 13, % value; footnote 8: % activity @ 10 μM
T4 construct: expressed in transfected cells; host or cells: HEK-293 (Cadus clone # 5)
T4 sequence (P29274 whole entry): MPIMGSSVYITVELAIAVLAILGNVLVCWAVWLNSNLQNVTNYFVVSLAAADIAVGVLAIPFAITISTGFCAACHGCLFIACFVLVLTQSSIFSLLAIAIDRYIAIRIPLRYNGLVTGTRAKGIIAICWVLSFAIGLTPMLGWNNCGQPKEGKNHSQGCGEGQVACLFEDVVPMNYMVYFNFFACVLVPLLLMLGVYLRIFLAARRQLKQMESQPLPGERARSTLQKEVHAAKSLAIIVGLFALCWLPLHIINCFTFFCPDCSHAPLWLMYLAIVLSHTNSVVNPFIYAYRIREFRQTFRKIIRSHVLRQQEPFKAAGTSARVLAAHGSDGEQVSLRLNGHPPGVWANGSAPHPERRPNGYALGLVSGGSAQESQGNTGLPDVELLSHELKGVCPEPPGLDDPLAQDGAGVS

[4] = biological target: T3, human A1 receptor subtype; settings: Table 13, % value; footnote 8: % activity @ 10 μM
[5] = read-out: A1 Yeast IC50, Table 10

| pIC50 [1, 5] | Compound | A2a % activity [3] [%] | also measured |
| --- | --- | --- | --- |
| – | C[C@H](Cc1ccccc1)Nc1ncnc2c1ncn2[C@@H]1O[C@H](CO)[C@@H](O)[C@H]1O (single isomer, unassigned) [R-PIA, (−)-N6-(2-phenylisopropyl)-adenosine] | – | affinity (reported) (A1 adenosine receptor): approximately 50 nM |
| < 5.00 | Cc1[nH]c2nc(-c3ccccc3)nc(NCCNS(C)(=O)=O)c2c1C [Compound 1007] | – | – |
| < 5.00 | Cc1[nH]c2nc(-c3ccccc3)nc(NCCNC(=O)CCN)c2c1C [Compound 1009] | – | – |
| – | CCC(=O)NCCCNc1nc(-c2ccccc2)nc2[nH]c(C)c(C)c12 [Compound 1012] | – | pKi [2]: 6.63; pIC50 [1]: 5.46 |
| – | CNC(=O)NCCCNc1nc(-c2ccccc2)nc2[nH]c(C)c(C)c12 [Compound 1310] | 76 | – |
| – | Cc1[nH]c2nc(-c3ccccc3)nc(NCCNC(=O)C3(N)CC3)c2c1C [Compound 1313] | 65 | A1 % activity [4]: 30% |

From patent US6878716B1, “Compounds specific to adenosine A1 receptor and uses thereof” (OSI Pharmaceuticals, Inc., priority 1998, dated 2005)
